In patent US8110398B2, “Stable cell lines and methods for evaluating gastrointestinal absorption of chemicals” (Absorption Systems Group, LLC, priority 2006, dated 2012):

Tests used:
in vitro [1] = details: human, Caco-2, pH 7.4
in vitro [2] = details: human, pH 7.4
P-gp mRNA = experiment: RT-PCR of P-gp mRNA expression in transduced C2BBe1 cells; type: cell-based, human; details: for P-gp mRNA expression relative to control C2BBe1 cells: RT-PCR, shRNA/P-gp clone cells
Method: (§1) RT-PCR. Total RNA was extracted from cells according to the following protocol. Cells were harvested from culture by centrifugation, resuspended in 1 ml of TRIzol® reagent (Invitrogen, Carlsbad, Calif.), and incubated at room temperature for 5 minutes with gentle shaking. The suspension was transferred to a 1.5 ml centrifuge tube, to which 200 μl of Chloroform was added, followed by an additional 5 minute incubation period with shaking. After incubation, the suspension was centrifuged at 12,000×g for 12 minutes at 4° C. The supernatant was transferred to a fresh, sterile 1.5 ml centrifuge tube, and supplemented with 0.5 ml of 2-propanaol per 1 ml of TRIzol reagent, and incubated for 10 minutes at room temperature. The mixture was then centrifuged at 12,000×g for an additional 12 minutes at 4° C. After centrifugation, the supernatant was removed and the pellet was washed with 75% ethanol. The sample was re-centrifuged at 7500×g for 5 minutes at 4° C., followed by the removal of the supernatant. The pellet was allowed to air dry at room temperature. The pellet was resuspended in pre-warmed (55° C.) nuclease-free water, and incubated at 55° C. for 10 minutes. RNA yield and purity were quantified by absorbance at 260 nm and 280 nm.
(§2) RT-PCR mixtures were set up as 50 μl samples containing buffer, 1-2 μg of RNA, 10 μM of Forward primer, 10 μM of Reverse primer, Taq polymerase, and water. Primers to amplify human P-gylcoprotein were as follows: P-gp Forward 5′-[…]-3′ (SEQ ID NO: 9); and, P-gp Reverse 5′-[…]-3′ (SEQ ID NO: 10). Primers to amplify human MRP2 were as follows: MRP2 Forward 5′-[…]-3′ (SEQ ID NO: 11); and, MRP2 Reverse 5′-[…]-3′ (SEQ ID NO: 12). Primes to amplify human BCRP were as follows: BCRP Forward 5′-[…] 3′ (SEQ ID NO: 13); and, BCRP Reverse 5′-[…] 3′ (SEQ ID NO: 14). Human β-actin was amplified in parallel as a positive control using the following primers: β-actin Forward 5′-[…]-3′ (SEQ ID NO: 15); and, β-actin Reverse 5′-[…]-3′ (SEQ ID NO: 16).
(§3) The PCR cycles proceeded in a programmable thermocycler with the following parameters: cDNA synthesis, 1 cycle, 55° C. for 30 minutes; denaturation, 1 cycle, 94° C. for 2 minutes; PCR amplification, 40 cycles of 94° C. for 15 seconds, 62° C. for 30 seconds, 72° C. for 1 minute; and, final extension, 1 cycle, 72° C. for 5 minutes. Amplification was confirmed by electrophoresis in 2% agarose gels.
Gene expression of P-gp in knockdown cells (shRNA/P-gp clones #83, 84, 85, 86, and 87) was determined by observing P-gp mRNA content, protein content and protein functional activity. RT-PCR was used to determine the expression of the P-gp mRNA. Total cellular RNA was harvested and amplified using primers specific to P-gp mRNA. RT-PCR products were then separated by electrophoresis on a 2% agarose gel. It was determined that 4 of the 5 shRNA/P-gp clone cells contained substantially less P-gp mRNA than control C2BBe1 cells (FIG. 2, top panel). β-actin was amplified, in parallel, as a positive control, and its expression was not affected by the interfering shRNA (FIG. 2, bottom panel).

P-gp [3] = target: T1, P-gp (Homo sapiens, UniProt P08183); experiment: Calcein-AM assay; details: transduced C2BBe1 cells vs Un-KD
Method: Calcein-AM assay. To determine activity of the P-gp protein, calcein-AM assays were conducted.
To determine the P-gp activity, cells were plated in 96-well tissue culture plates and cultured for 48. After 48 hours, cell culture media was removed and the cells were washed with phosphate buffered saline solution (PBS). After washing, cells were incubated with 1 μM calcein-AM for 30 minutes. […] After incubation with calcein-AM, the cells were rinsed with fresh control buffer and fluorescence was measured using a Fluo-star fluorescence plate reader (BMG Lab Technologies, N.C.) with excitation and emission filters set at wavelengths of 485 nm and 538 nm, respectively.
Calcein-AM efflux is not mediated by BCRP. Therefore, any increase in calcein-AM uptake by the cells can be attributed to P-gp inhibition. The cells were plated in 96-well tissue culture plates and cultured for 48 hours. After 48 hours, cell culture media was removed and the cells were washed with phosphate buffered saline solution (PBS). After washing, cells were incubated with 1 μM calcein-AM for 30 minutes. […] After incubation with calcein-AM, the cells were rinsed with fresh control buffer and fluorescence was measured using a Fluo-star fluorescence plate reader (BMG Lab Technologies, N.C.) with excitation and emission filters set at wavelengths of 485 nm and 538 nm, respectively. The assay was carried out after each clone had been passaged 9 times.

P-gp [4] = target: T1, P-gp; experiment: in vitro
Method: (§4) Bidirectional Transcellular Transport assay.
(§5) Each determination was performed in duplicate.
The assay was carried out after each clone had been passaged 9 times.

BCRP mRNA = experiment: RT-PCR of BCRP mRNA expression in transduced C2BBe1 cells; type: cell-based, human; details: between passages 5 and 20
Method: as §1, with “The sample was re-centrifuged at 7500×g for 5 minutes at 4° C., followed by the removal of the supernatant. The pellet was allowed to air dry at room temperature. The pellet was resuspended in pre-warmed (55° C.) nuclease-free water, and incubated at 55° C. for 10 minutes.” left out, “nm. […]” for “nm.”
For RT-PCR, total cellular RNA was harvested as described in Examples 1 and 3 and amplified by RT-PCR using primers specific to BCRP mRNA (SEQ ID NOs: 13 and 14). The RT-PCR products were separated by electrophoresis on a 2% agarose gel and analyzed to determine whether shRNA/BCRP clone cells produced substantially less BCRP mRNA than C2BBe1 cells transduced with a non-interfering shRNA vector control.

MRP2 mRNA = experiment: RT-PCR of MRP2 mRNA expression in transduced C2BBe1 cells; type: cell-based, human; details: cells passaged 20 times
Method: as §1, §2, §3
For this example, gene expression of MRP2 in C2BBe1 cells was determined by observing both the MRP2 mRNA content as well as the protein content of the cells following viral transduction. To examine mRNA content, total cellular RNA was harvested and amplified by RT-PCR using primers specific to the MRP2 gene (SEQ ID NO: 11 and 12). The RT-PCR products were then analyzed after separation by electrophoresis on a 2% agarose gel.
Vector control (VC) cells were prepared from cells transducted with lentiviruses encoding a non-interfering nucleic acid sequence (SEQ ID NO 27), as described in Example 7. Methods were described in Example 1. […]

BCRP = target: T2, BCRP (Homo sapiens, UniProt Q9UNQ0); experiment: Bidirectional transcellular transport of E3S (BCRP substrate) across C2BBe1-derived monolayers; details: compared to control cells
T2 sequence (Q9UNQ0 1-655): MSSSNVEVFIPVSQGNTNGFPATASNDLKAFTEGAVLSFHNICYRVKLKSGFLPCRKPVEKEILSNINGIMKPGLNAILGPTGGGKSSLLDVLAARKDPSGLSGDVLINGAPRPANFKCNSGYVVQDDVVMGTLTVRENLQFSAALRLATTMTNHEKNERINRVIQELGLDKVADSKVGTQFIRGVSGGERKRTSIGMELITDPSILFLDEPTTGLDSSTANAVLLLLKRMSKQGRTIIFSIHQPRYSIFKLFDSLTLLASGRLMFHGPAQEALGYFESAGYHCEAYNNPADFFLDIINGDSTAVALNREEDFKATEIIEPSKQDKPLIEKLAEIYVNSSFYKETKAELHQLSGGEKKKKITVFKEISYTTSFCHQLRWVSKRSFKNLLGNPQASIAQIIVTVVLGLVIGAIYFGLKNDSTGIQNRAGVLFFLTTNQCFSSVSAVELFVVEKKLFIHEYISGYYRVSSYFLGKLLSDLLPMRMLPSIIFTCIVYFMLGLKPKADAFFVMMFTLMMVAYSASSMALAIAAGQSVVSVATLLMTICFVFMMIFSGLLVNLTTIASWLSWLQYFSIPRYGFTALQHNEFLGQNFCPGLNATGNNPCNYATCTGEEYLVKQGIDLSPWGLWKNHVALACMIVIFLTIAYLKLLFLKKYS
Method: as §4, §5
Each of the five shRNA/BCRP knockdown clone cells were seeded on transwells for three weeks for the transport assay.

T1 sequence (P08183 whole entry): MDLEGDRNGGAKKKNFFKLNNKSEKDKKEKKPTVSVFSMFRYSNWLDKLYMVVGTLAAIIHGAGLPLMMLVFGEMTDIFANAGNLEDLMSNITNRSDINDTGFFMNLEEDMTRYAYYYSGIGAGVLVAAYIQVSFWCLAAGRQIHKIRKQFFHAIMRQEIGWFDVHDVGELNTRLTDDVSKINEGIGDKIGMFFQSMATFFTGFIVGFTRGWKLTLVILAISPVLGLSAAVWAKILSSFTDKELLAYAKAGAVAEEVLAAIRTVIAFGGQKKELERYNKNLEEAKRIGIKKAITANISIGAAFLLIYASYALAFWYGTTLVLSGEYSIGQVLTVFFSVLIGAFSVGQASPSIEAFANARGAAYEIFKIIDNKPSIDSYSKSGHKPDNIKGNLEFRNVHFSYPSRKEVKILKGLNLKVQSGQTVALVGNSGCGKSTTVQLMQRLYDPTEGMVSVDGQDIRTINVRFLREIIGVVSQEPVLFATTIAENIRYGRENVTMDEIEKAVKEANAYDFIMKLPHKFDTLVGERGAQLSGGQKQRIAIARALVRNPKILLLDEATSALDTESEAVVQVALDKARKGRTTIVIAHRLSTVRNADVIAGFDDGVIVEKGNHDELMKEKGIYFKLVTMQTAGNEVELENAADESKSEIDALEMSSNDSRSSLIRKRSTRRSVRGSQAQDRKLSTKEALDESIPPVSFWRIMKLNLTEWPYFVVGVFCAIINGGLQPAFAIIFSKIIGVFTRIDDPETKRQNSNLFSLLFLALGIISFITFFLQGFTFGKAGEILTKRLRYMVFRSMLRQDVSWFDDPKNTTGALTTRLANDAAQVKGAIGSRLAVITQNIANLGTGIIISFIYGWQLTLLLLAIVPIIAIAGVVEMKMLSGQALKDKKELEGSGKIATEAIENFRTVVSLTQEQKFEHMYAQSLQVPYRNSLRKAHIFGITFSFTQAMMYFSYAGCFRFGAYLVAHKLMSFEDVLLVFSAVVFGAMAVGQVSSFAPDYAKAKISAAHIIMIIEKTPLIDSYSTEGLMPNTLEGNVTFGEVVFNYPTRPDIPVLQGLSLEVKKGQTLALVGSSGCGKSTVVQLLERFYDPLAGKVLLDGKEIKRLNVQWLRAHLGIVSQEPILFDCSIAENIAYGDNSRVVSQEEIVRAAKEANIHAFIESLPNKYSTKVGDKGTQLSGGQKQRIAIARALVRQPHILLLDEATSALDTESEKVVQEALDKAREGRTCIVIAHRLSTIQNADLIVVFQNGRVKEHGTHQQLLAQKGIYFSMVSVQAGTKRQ

Compound: CNCCCN1c2ccccc2CCc2ccccc21 [Desipramine]
- efflux ratio at 2 h (in vitro [1]): 5.59
- efflux ratio at 2 h (in vitro [2]): 6.84

Compound: shRNA/P-gp #87: shRNA to human P-gp, SEQ ID NO: 5, lentivirally transduced into C2BBe1 cells; clone #87 (CCGGGCTGCTTTCCTGCTGATCTATCTCGAGATAGATCAGCAGGAAAGCAGCTTTTTG; listed as Homo Sapiens)
- P-gp mRNA expression relative to control C2BBe1 cells (P-gp mRNA): significantly reduced
- P-gp function by intracellular calcein fluorescence (P-gp [3]): significantly decreased

Compound: Cc1cc(=O)n(-c2ccccc2)n1C [Antipyrine]
- efflux ratio at 2 h (in vitro [1]): 0.84
- efflux ratio at 2 h (in vitro [2]): 0.92

Compound: COc1cc([C@@H]2c3cc4c(cc3[C@@H](O[C@@H]3O[C@@H]5CO[C@@H](C)O[C@H]5[C@H](O)[C@H]3O)[C@H]3COC(=O)[C@H]23)OCO4)cc(OC)c1O [Etoposide]
- efflux ratio at 2 h (in vitro [1]): 13.7
- efflux ratio at 2 h (in vitro [2]): 11.5

Compound: shRNA/P-gp #83: shRNA to human P-gp, SEQ ID NO: 1, lentivirally transduced into C2BBe1 cells; clone #83 (CCGGCCGAACACATTGGAAGGAAATCTCGAGATTTCCTTCCAATGTGTTCGGTTTTTG; listed as Homo Sapiens)
- P-gp mRNA expression relative to control C2BBe1 cells (P-gp mRNA): significantly reduced
- P-gp function by intracellular calcein fluorescence (P-gp [3]): significantly decreased

Compound: shRNA/P-gp #85: shRNA to human P-gp, SEQ ID NO: 3, lentivirally transduced into C2BBe1 cells; clone #85 (CCGGCGACAGAATAGTAACTTGTTTCTCGAGAAACAAGTTACTATTCTGTCGTTTTTG; listed as Homo Sapiens)
- P-gp mRNA expression relative to control C2BBe1 cells (P-gp mRNA): significantly reduced
- P-gp function by intracellular calcein fluorescence (P-gp [3]): significantly decreased

Compound: shRNA/P-gp #84: shRNA to human P-gp, SEQ ID NO: 2, lentivirally transduced into C2BBe1 cells; clone #84 (CCGGGCAGCAATTAGAACTGTGATTCTCGAGAATCACAGTTCTAATTGCTGCTTTTTG; listed as Homo Sapiens)
- P-gp mRNA expression relative to control C2BBe1 cells (P-gp mRNA): significantly reduced
- P-gp function by intracellular calcein fluorescence (P-gp [3]): significantly decreased

Compound: C[C@H]1O[C@@H](O[C@H]2[C@@H](O)C[C@H](O[C@H]3[C@@H](O)C[C@H](O[C@H]4CC[C@@]5(C)[C@H](CC[C@@H]6[C@@H]5C[C@@H](O)[C@]5(C)[C@@H](C7=CC(=O)OC7)CC[C@]65O)C4)O[C@@H]3C)O[C@@H]2C)C[C@H](O)[C@@H]1O [Digoxin]
- Papp A→B at 2 h (P-gp [4]; Caco-2, pH 7.4, Efflux of digoxin A-B): 2 nm/s
- Papp B→A at 2 h (P-gp [4]; Caco-2, pH 7.4, Efflux of digoxin B-A): 36.9 nm/s
- Papp B→A at 2 h, 10 µM (P-gp [4]; Caco-2, pH 7.4, Papp B-A (Digoxin)): 82.4 nm/s

Compound: shRNA/BCRP 801: 21-nucleotide sequence targeting human BCRP gene, SEQ ID NO: 25, lentivirally transduced into C2BBe1 cells; clone #801 (CCGGGCTGTGGCATTAAACAGAGAACTCGAGTTCTCTGTTTAATGCCACAGCTTTTTG; listed as Homo Sapiens)
- P-gp mRNA levels in shRNA/BCRP clone cells (P-gp mRNA; compared with #799 and control cells): higher
- BCRP mRNA knockdown over passages (BCRP mRNA): steadily increased
- MRP2 mRNA levels in shRNA/BCRP clone cells (MRP2 mRNA): reduced
- inhibition for BCRP function in E3S transport (BCRP): 96.43%
